Assay results published in patent US6242445A, “Benzimidazole derivative” (Kureha Chemical Industry Co., Ltd., priority 1998, dated 2001).

What was measured:
[1] = tested on: kidney disease model rats; assay: Action to lower blood pressure in kidney disease model rats; format: in vivo, Sprague-Dawley female rats; conditions: 20 mg/kg oral; for action of lowering the blood pressure: in comparison with the control group; for Blood pressure: systolic, tail cuff, average, two days after administration, control 210
Protocol: In this Example, an action to lower blood pressure was evaluated. That is, each of 2-ethoxy-1-[[4'- (2'-N,N-dimethylamino-ethoxycarbonyl) phenyl]methyl]-1H-benzimidazole-6-carboxylic acid morpholide (Compound No. 13) prepared in Example 6, 2-ethoxy-1-[[4'-(2"-morpholinoethoxycarbonyl)-phenyl]methyl]-1H-benzimidazole-6-carboxylic acid piperidinamide (Compound No. 57) prepared in Example 28, or the reference substance was forcibly orally administered to kidney disease model rats, and the action of lowering the blood pressure was observed. The kidney disease model rats were prepared by a ligature of branches of renal artery in accordance with a conventional method. Namely, the left hilum renalis of Sprague-Dawley female rats was exposed under anesthesia, and one of four secondary branches of the renal artery was left unligated, while the remaining three branches were ligated, respectively. After a week, the hilum renalis (artery, vein, and ureter) of the right kidney were further ligated to thereby prepare rats whose renal function was lowered to approximately 1/8 of the normal function. Each group consisted of eight rats. The drugs to be tested (20 mg/kg) were administered to each administering group, and only water was administered to a control group. Two days after the administration, the systolic blood pressure was measured by the tail cuff method using a blood pressure measuring apparatus (UR^5000; Ueda).

[2] = tested on: kidney disease model rats; assay: Action to kidney diseases, renal function indicatory values; format: in vivo, Sprague-Dawley female rats; conditions: for Creatinine clearance / blood urea nitrogen value / serum creatinine value / Creatinine / Blood urea nitrogen: 20 mg/kg/day, two weeks; for Creatinine / Blood urea nitrogen: serum; for Creatinine: control 2.0; for Blood urea nitrogen: control 100; for effects on renal function compared with reference substance: vs DuP753
Protocol: The kidney disease model rats were prepared by a ligature of branches of renal artery in accordance with a conventional method. Namely, the left hilum renalis of Sprague-Dawley female rats was exposed under anesthesia, and one of four secondary branches of the renal artery was left unligated, while the remaining three branches were ligated, respectively. After a week, the hilum renalis (artery, vein, and ureter) of the right kidney were further ligated to thereby prepare rats whose renal function was lowered to approximately 1/8 of the normal function. Each group consisted of eight rats. The drugs to be tested (20 mg/kg) were administered to each administering group, and only water was administered to a control group. Two days after the administration, the systolic blood pressure was measured by the tail cuff method using a blood pressure measuring apparatus (UR^5000; Ueda).
In this Example, an action to kidney diseases was evaluated on the basis of a renal function indicatory value.
Fifteen groups (8 rats per group) were prepared in a manner such that there was no major difference between the groups in the serum creatinine value and the blood urea nitrogen value indicating renal function. The rats in each group were allowed to freely take up food and water. […] To the rats in the control group, only water was forcibly orally administered every day. After two weeks, 0.2 ml of blood was collected from the carotid artery of the rats under anesthesia, and centrifuged to obtain serum. Using 25 μl of the serum, the serum creatinine (Scr) was measured by a creatinine analytical instrument (Beckman). Using 10 μl of the serum, the blood urea nitrogen (BUN) was measured by a BUN analytical instrument (Beckman). The creatinine clearance was evaluated as follows:
After the serum creatinine measurement, rats were placed in urinary metabolic cages for 24 hours to collect urine. A urinary creatine concentration (Ucr) was measured by a creatinine analytical instrument, and a total volume of urination (Uvol) was also measured. The creatinine clearance (CCr) was calculated by the following formula: [formula]
In the above formula, the unit of "Ucr" and "Scr" is "mg/ml" and the unit of "Uvol" is "ml".

SMILES	action of lowering the blood pressure [1]	Blood pressure [1] [mmHg]	Creatinine clearance ([2]; control 0.22) [mL/min]	Creatinine clearance ([2]; vs control)	blood urea nitrogen value ([2]; vs control)	serum creatinine value ([2]; vs control)	Creatinine [2] [mg/dL]	Blood urea nitrogen [2] [mg/dL]	effects on renal function compared with reference substance [2]
CCOc1nc2ccc(C(=O)N3CCOCC3)cc2n1Cc1ccc(C(=O)OCCN(C)C)cc1 [Compound No. 13, 2-ethoxy-1-[[4'-(2"-N,N-dimethylaminoethoxycarbonyl)phenyl]methyl]-1H-benzimidazole-6-carboxylic acid morpholide]	an influence on the blood pressure was not substantially observed	208	0.35	clearly improved	clearly became lower values	clearly became lower values	1.5	75	comparable to those of the reference substance
CCOc1nc2ccc(C(=O)N3CCCCC3)cc2n1Cc1ccc(C(=O)OCCN2CCOCC2)cc1 [Compound No. 57, 2-ethoxy-1-[[4'-(2"-morpholinoethoxycarbonyl)phenyl]methyl]-1H-benzimidazole-6-carboxylic acid piperidinamide]	an influence on the blood pressure was not substantially observed	205	0.33	clearly improved	clearly became lower values	clearly became lower values	1.5	72	comparable to those of the reference substance
